pEC50: −log10 of the molar value. The source made the active and inactive calls.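 How the source made its calls: active means compounds whose averaged half-maximal activating concentration falls below 100 micromolar; inactive means the rest.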
Target: intestinal alkaline phosphatase (Alpi), mouse
Test: activators of mouse IAP enzyme, SAR follow-up, biochemical, luminescence, set 2 (AID 588609)
Details: purified muIAP, CDP-Star luminescence, 30 min

Structure (SMILES)	pEC50	EC50
CN(C)S(=O)(=O)c1cccc(NC(=S)NC(C)(C)CC(C)(C)C)c1	4.49	
CN(C)S(=O)(=O)c1cccc(NC(=S)NCCCn2ccnc2)c1		> 100 µM (inactive)
COc1cccc(CCNC(=S)Nc2cccc(S(=O)(=O)N(C)C)c2)c1	4.27	
Cc1ccc(S(=O)(=O)N(C)C)cc1NC(=S)NC(=O)C12CC3CC(CC(C3)C1)C2		> 100 µM (inactive)
CN(CCc1ccccc1)C(=S)Nc1cccc(S(=O)(=O)N(C)C)c1		> 100 µM (inactive)
CN(C)S(=O)(=O)c1cccc(NC(=S)NCc2ccc(Cl)cc2)c1	4.91	
CN(C)S(=O)(=O)c1cccc(NC(=S)NCCc2ccc(F)cc2)c1		> 100 µM (inactive)
Cc1ccc(S(=O)(=O)N(C)C)cc1NC(=S)NC(C)CCCC(C)C (stereo not given)	4.29	
CCN(CC)c1ccc(C(=O)NC(=S)Nc2cc(S(=O)(=O)N3CCOCC3)ccc2-n2cncn2)cc1		> 100 µM (inactive)
CN(C)CC(C)(C)CNC(=S)Nc1cccc(S(=O)(=O)N(C)C)c1		> 100 µM (inactive)
CN(C)S(=O)(=O)c1cccc(NC(=S)NCCc2cccc(O)c2)c1		> 100 µM (inactive)
CC1CC(NC(=S)Nc2cccc(S(=O)(=O)N(C)C)c2)CC(C)N1 (stereo not given)		> 100 µM (inactive)
Cc1ccc(S(=O)(=O)N(C)C)cc1NC(=S)NCCCn1ccnc1		> 100 µM (inactive)
COc1cccc(CNC(=S)Nc2ccc(S(=O)(=O)N(C)C)cc2)c1	4.35	
O=C(NC(=S)Nc1cc(S(=O)(=O)N2CCOCC2)ccc1N1CCOCC1)c1ccco1		> 100 µM (inactive)
CN(C)S(=O)(=O)c1cccc(NC(=S)NCCc2cccc(Br)c2)c1	4.24	

Structure (SMILES)	pEC50	EC50
Cc1ccc(S(=O)(=O)N(C)C)cc1NC(=S)NC(C)CCC(C)C (stereo not given)	4.37	
CC(CCc1ccccc1)NC(=S)Nc1cccc(S(=O)(=O)N(C)C)c1 (stereo not given)	4.35	
Cc1ccc(S(=O)(=O)N(C)C)cc1NC(=S)NC1CCN(Cc2ccccc2)CC1		> 100 µM (inactive)
CCN(CC)CCCNC(=S)Nc1cccc(S(=O)(=O)N(C)C)c1		> 100 µM (inactive)
CCCCCCC(C)NC(=S)Nc1cc(S(=O)(=O)N(C)C)ccc1C (stereo not given)	4.91	
Cc1ccc(CNC(=S)Nc2ccc(S(=O)(=O)N(C)C)cc2)cc1	4.14	
CN(C)CCCNC(=S)Nc1cccc(S(=O)(=O)N(C)C)c1		> 100 µM (inactive)
CN(C)S(=O)(=O)c1cccc(NC(=S)NCCc2cccc(F)c2)c1	4.69	
Cc1ccc(CNC(=S)Nc2cccc(S(=O)(=O)N(C)C)c2)cc1	4.59	
O=C(NC(=S)Nc1cc(S(=O)(=O)N2CCOCC2)ccc1O)c1ccco1		> 100 µM (inactive)
CN(C)S(=O)(=O)c1cccc(NC(=S)NCCN2CCCC2)c1		> 100 µM (inactive)
CN(CCc1ccccn1)C(=S)Nc1cccc(S(=O)(=O)N(C)C)c1		> 100 µM (inactive)
CN(C)S(=O)(=O)c1cccc(NC(=S)NCCC(=O)N2CCCC2)c1		> 100 µM (inactive)
CN(C)S(=O)(=O)c1cccc(NC(=S)NCCCN2CCCC2=O)c1		> 100 µM (inactive)
CN(C)S(=O)(=O)c1cccc(NC(=S)NCCc2ccc(Br)cc2)c1	4.07	

Next, values leading:

pEC50	EC50	Structure (SMILES)
4.36		CCN(CC)S(=O)(=O)c1ccc(NC(=S)NC(c2ccccc2)c2ccccc2)cc1
	> 100 µM (inactive)	O=c1c2ccccc2[nH]c(=S)n1-c1cccc(S(=O)(=O)N2CCCC2)c1
4.22		COc1ccc(CCNC(=S)Nc2ccc(S(=O)(=O)N3CCCCC3)cc2)cc1OC
4.90		O=S(=O)(c1ccc(NC(=S)NC(c2ccccc2)c2ccccc2)cc1)N1CCCC1
4.35		O=S(=O)(c1ccc(NC(=S)NCCC(c2ccccc2)c2ccccc2)cc1)N1CCCCC1
4.59		CN(C)S(=O)(=O)c1cccc(NC(=S)NC(c2ccccc2)c2ccccc2)c1
5.04		O=S(=O)(c1ccc(NC(=S)NCC(c2ccccc2)c2ccccc2)cc1)N1CCCC1
5.36		O=S(=O)(c1ccc(NC(=S)NC(c2ccccc2)c2ccccc2)cc1)N1CCCCC1
5.49		CN(C)S(=O)(=O)c1ccc(NC(=S)NC(c2ccccc2)c2ccccc2)cc1
5.13		CN(C)S(=O)(=O)c1cccc(NC(=S)NCCC(c2ccccc2)c2ccccc2)c1
	> 100 µM (inactive)	CN(C)S(=O)(=O)c1ccc(NC(=S)NCCc2cccc(O)c2)cc1
4.71		CCN(CC)S(=O)(=O)c1ccc(NC(=S)NCC(c2ccccc2)c2ccccc2)cc1
4.22		COc1ccc(CCNC(=S)Nc2ccc(S(=O)(=O)N3CCCCC3)cc2)cc1
	> 100 µM (inactive)	CN(C)S(=O)(=O)c1ccc(NC(=S)NCCN2CCCC2)cc1
	> 100 µM (inactive)	Cc1ccc(C)c(NC(=S)Nc2ccc(S(=O)(=O)N3CCCCC3)cc2)c1
4.06		CC(CNC(=S)Nc1cccc(S(=O)(=O)N(C)C)c1)N1CCN(c2ccccc2)CC1 (stereo not given)
4.11		CCN(CC)S(=O)(=O)c1ccc(NC(=S)NCCC(c2ccccc2)c2ccccc2)cc1

pEC50	EC50	Structure (SMILES)
5.17		CC1CCN(S(=O)(=O)c2ccc(NC(=S)NCC(c3ccccc3)c3ccccc3)cc2)CC1
4.55		O=S(=O)(c1ccc(NC(=S)NCc2cccc(F)c2)cc1)N1CCCCC1
4.29		CN(C)S(=O)(=O)c1cccc(NC(=S)NCCc2ccccc2)c1
4.23		O=S(=O)(c1ccc(NC(=S)NCCC(c2ccccc2)c2ccccc2)cc1)N1CCCC1
5.27		O=S(=O)(c1ccc(NC(=S)NCC(c2ccccc2)c2ccccc2)cc1)N1CCCCC1
4.44		O=S(=O)(c1ccc(NC(=S)NCc2cccc(Cl)c2)cc1)N1CCCCC1
	> 100 µM (inactive)	O=C(CCc1ccccc1)NC(=S)Nc1cccc(S(=O)(=O)N2CCCC2)c1
4.32		Cc1ccccc1CNC(=S)Nc1ccc(S(=O)(=O)N(C)C)cc1
4.82		CN(C)S(=O)(=O)c1cccc(NC(=S)NCC(c2ccccc2)c2ccccc2)c1
4.31		CN(C)S(=O)(=O)c1ccc(NC(=S)NCCc2cccc(Br)c2)cc1
4.87		CN(C)S(=O)(=O)c1ccc(NC(=S)NCC(c2ccccc2)c2ccccc2)cc1
4.89		CC1CCN(S(=O)(=O)c2ccc(NC(=S)NCCC(c3ccccc3)c3ccccc3)cc2)CC1
4.17		COc1ccccc1CNC(=S)Nc1ccc(S(=O)(=O)N(C)C)cc1
5.14		CC1CCN(S(=O)(=O)c2ccc(NC(=S)NC(c3ccccc3)c3ccccc3)cc2)CC1
4.70		CN(C)S(=O)(=O)c1ccc(NC(=S)NCCC(c2ccccc2)c2ccccc2)cc1
	> 100 µM (inactive)	CN(C)S(=O)(=O)c1ccc(NC(=S)NCCc2ccccc2)cc1
4.36		COc1ccc(CNC(=S)Nc2ccc(S(=O)(=O)N3CCCCC3)cc2)cc1OC

Source: PubChem BioAssay AID588609 (Sanford-Burnham Center for Chemical Genomics, 2011)
